From patent EP0327365B1, “Improvements in or relating to modified haptens useful as imaging and therapeutic agents” (HYBRITECH INCORPORATED, priority 1988, dated 1989)

Experiments:
[1] = test system: monoclonal antibody CHA255; assay: Determination of hapten-antibody dissociation rates; assay type: binding, BALB/c mice; settings: 22°C; indium complex of hapten from CHA255 after 100 fold excess of indium-115 loaded hapten
Experimental: Hapten-antibody dissociation rates were determined using monoclonal antibody CHA255, prepared as described in Example 2A, by measuring the quantity of ¹¹¹In³⁺ chelate released from the antibody hapten complex as a function of time after addition of a 100 fold excess (over antibody binding sites) of indium-115 loaded hapten. Thus, for each hapten, a 700 »l solution was prepared containing: antibody at a concentration of 160 nM; indium loaded hapten, trace labeled with ¹¹¹In (total concentration = 160 nM); normal human serum albumin at a total concentration of 1.5 mg/mL; and isotonic phosphate buffered saline, (10 mM PO₄²⁻, 150 mM NaCl, pH 7.2). Indium-115 loaded hapten was added to a final Concentration of […]. Reactions were stirred by placing the sample containers ir a rack mounted on a vortexer head.
At various times after addition of the excess hapten, […] portions of the reaction solutions were transferred to Centrifree tubes (Amicon Corperation, Danvers, Massachusetts) and centrifuged at 1500xg for eight to ten minutes. The reaction time was taken to be the time between addition of the excess hapten and the time the centrifuge reached the desired velocity. Six timepoints, each in duplicate, were obtained over a range of about two reaction half-lives for each rate constant determination. A 200 »l portion from each centrifuged and uncentrifuged solution was then counted for ¹¹¹In. The relative concentration of free hapten was taken to be the ratio of counts in the centrifuged solution to the uncentrifuged solution at each timepoint. Times were recorded to the nearest tenth of a minute.
Room temperature rate constants were measured without the aid of a constant temperature bath. The ambient temperature remained at 22°±1 C.
Rate constants and standard deviations were obtained from a plot of the logarithm of relative complex concentration vs. time. Data were analyzed using the linear regression module of the RS/1 Program (BBN Software Products Corporation, Cambridge, Massachusetts).
Control samples were included in each experiment to determine: A) that the initial condition of 100% of labeled hapten bound to antibody was met, and B) that in the absence of antibody, 100% of counts were able to penetrate the Centrifree membrane. […]

[2] = test system: T-380 tumors; assay: Hapten biodistribution, premix protocol with bifunctional antibody ECH037.2; assay type: in vivo, nude mice; parameters: TOTAL RECOV: unit not given here; settings: for % DOSE PER GRAM, KIDNEY / % DOSE PER GRAM, LIVER / % DOSE PER GRAM, TUMOR / FECES / TOTAL RECOV / URINE / % DOSE PER GRAM, BLOOD / TUMOR/BLOOD: premix with 20 µg ECH037.2; for % DOSE PER GRAM, BLOOD: 111In-labeled hapten i.v.; for TUMOR/BLOOD: ratio; for Percent Injected Dose in Feces: premix protocol (Table VI)
Experimental: Two protocols were used for examining the biodistribution of the derivatized haptens in the presence of the bifunctional antibody ECH037.2. In a premix protocol, ECH037.2 and the derivatized hapten were combined prior to injection in the animals. In the prelocalization protocol, ECH037.2 was injected into the animals, and the antibody was allowed to prelocalize for 24 hours prior to injection of the radiolabeled hapten.
Biodistribution studies were performed in nude mice carrying subcutaneous implants of the human colon carcinoma cell line T-380 which expresses the carcinoembryonic antigen (CEA) recognized by ECH037.2. Briefly, Balb/C Nu/Nu mice were injected subcutaneously with a minced preparation of T-380 tumor implants and maintained for approximately two weeks, or until the tumor implant had grown to a size of approximately 0.5 grams as described by Hagan, P.L., et al. J. Nuc. Med., 26 1418-1423 (1985). Mice were kept in a sterile environment to prevent complications due to bacterial or viral infections. Biodistributions were performed as described by Halpern, S., et al., Cancer Res. 43, 5347-5355 (1983). Briefly, the radiolabeled haptens were injected intravenously in […], and the pharmacokinetics were evaluated at several time points post-injection. At these times, mice were sacrificed and weighed. Organs were removed, their weight recorded, and each organ was then washed in sterile PBS, pH 7.0, and fixed in formalin solution. Samples of blood, urine and feces also were collected and their weight similarly recorded. The organs, or a portion thereof, were transferred to clean tubes and their radioactive content was determined in a well-type gamma-counter.
Relative radioactive content of each organ was expressed as a percentage of injected dose per organ.
To indium-label the haptens of the invention 10 »l of 0.1 mM ligand was combined with X »l of ¹¹¹InCl₃ (in 50 mM HCl) and (x+10) »l of 0.26 M ammonium citrate, pH 6.0. X is calculated by the following equation: X = (200 »Ci)/(A »Ci/»l) [formula] where A is the specific activity of the ¹¹¹In.
The labeling was done in an acid-washed microfuge tube. After combining all of the components above, the solution was vortexed and allowed to stand at room temperature for 15 minutes.
Incorporation of the ¹¹¹In into the chelating agent was determined by TLC on silica in a methanol/aqueous ammonium acetate solvent system as described by Meares, et al. (Anal. Biochem., 142, 68-75 (1984)). Greater than 95% incorporation of the radioactivity into the chelate was required for the sample to be submitted for a biodistribution assay.
Prior to injection the ¹¹¹In-labeled hapten was diluted into freshly prepared isotonic sodium bicarbonate (1.39% w/v) containing 1 mg/ml normal human serum albumin (Buminate, 25% solution, Travenol Laboratories, Glendale, California) to which the bifunctional antibody had been added. The final composition of the solution was 0.2 mg/ml ECH037.2, 0.5 »M chelate, 0.1 »Ci/»l ¹¹¹In, all in a volume of 2.0 ml. For the biodistribution studies, 100 »l of the solution was injected into the tail vein of each animal.

Row | SMILES | t1/2, Dissociation Half-Lives [1] [h] | % DOSE PER GRAM, KIDNEY ([2]; 24 hours) [% DOSE PER GRAM] | % DOSE PER GRAM, LIVER ([2]; 24 hours) [% DOSE PER GRAM] | % DOSE PER GRAM, TUMOR ([2]; 24 hours) [% DOSE PER GRAM] | FECES ([2]; 24 hours) | TOTAL RECOV ([2]; 24 hours) | URINE ([2]; 24 hours) | % DOSE PER GRAM, BLOOD ([2]; 24 hours) [% DOSE PER GRAM] | TUMOR/BLOOD ([2]; 24 hours) | Percent Injected Dose in Feces ([2]; 24 hrs.) [Percent Injected Dose] | % DOSE PER GRAM, KIDNEY ([2]; 48 hours) [% DOSE PER GRAM] | % DOSE PER GRAM, LIVER ([2]; 48 hours) [% DOSE PER GRAM] | % DOSE PER GRAM, TUMOR ([2]; 48 hours) [% DOSE PER GRAM] | FECES ([2]; 48 hours) | TOTAL RECOV ([2]; 48 hours) | URINE ([2]; 48 hours) | % DOSE PER GRAM, BLOOD ([2]; 48 hours) [% DOSE PER GRAM] | TUMOR/BLOOD ([2]; 48 hours) | Percent Injected Dose in Feces ([2]; 48 hrs.) [Percent Injected Dose] | other results
1 | CCNC(=S)Nc1ccc(CC(CN(CC(=O)O)CC(=O)O)N(CC(=O)O)CC(=O)O)cc1 (centres unmarked) [ETUBE] | 1.21 | 2.4 | 3.5 | 8.0 | 5.9% of total injected dose | 52.2 | 25.8% of total injected dose | 10.4 | 0.77 | 6.7 | 1.2 | 2.4 | 10.4 | 15.2% of total injected dose | 66.6 | 36.0% of total injected dose | 5.9 | 1.76 | 15.2 | amount of hapten in the tumor ([2]; 24 hrs., premix protocol): 8.0 percent injected dose/gram; injected material excreted in the feces ([2]; 48 hrs. post injection, premix protocol): 15.2% of the injected material; amount of hapten in the tumor ([2]; 48 hrs., premix protocol): 10.4 percent injected dose/gram
2 | CC(=O)NC(CCCCNC(=S)Nc1ccc(CC(CN(CC(=O)O)CC(=O)O)N(CC(=O)O)CC(=O)O)cc1)C(N)=O (centres unmarked) [BALTUBE] | 1.52 | 3.6 | 4.0 | 13.0 | 6.8% of total injected dose | 52.0 | 16.3% of total injected dose | 11.0 | 1.18 | 8.5 | 1.9 | 2.2 | 12.9 | 13.8% of total injected dose | 57.8 | 26.5% of total injected dose | 5.2 | 2.48 | 13.8 | –
3 | O=C(O)CCNC(=S)Nc1ccc(CC(CN(CC(=O)O)CC(=O)O)N(CC(=O)O)CC(=O)O)cc1 (centres unmarked) [PATUBE] | 1.46 | 2.2 | 3.3 | 10.6 | 5.0% of total injected dose | 53.7 | 23.6% of total injected dose | 12.2 | 0.87 | 5.0 | 1.7 | 2.4 | 9.8 | 8.9% of total injected dose | 61.7 | 36.0% of total injected dose | 7.6 | 1.29 | 8.9 | –
4 | O=C(O)CN(CC(=O)O)CC(Cc1ccc(NC(=S)NCc2ccccc2)cc1)N(CC(=O)O)CC(=O)O (centres unmarked) [BETUBE] | 1.57 | 2.5 | 2.7 | 8.0 | 17.4% of total injected dose | 44.6 | 8.4% of total injected dose | 9.0 | 0.89 | 17.4 | 1.5 | 1.9 | 7.5 | 29.0% of total injected dose | 54.2 | 12.0% of total injected dose | 5.5 | 1.36 | 29.0 | –
5 | O=C(O)CCCNC(=S)Nc1ccc(CC(CN(CC(=O)O)CC(=O)O)N(CC(=O)O)CC(=O)O)cc1 (centres unmarked) [BATUBE] | 1.24 | 2.5 | 3.3 | 11.5 | 6.9% of total injected dose | 50.8 | 20.0% of total injected dose | 11.8 | 0.97 | 6.9 | 1.5 | 2.0 | 12.1 | 21.1% of total injected dose | 68.3 | 30.4% of total injected dose | 7.9 | 1.53 | 21.1 | –
